Results: patent publication US9382224B2, “7-acyloxychromen-4-one derivatives and the use thereof as self-tanning substances” (MERCK PATENT GMBH, priority 2011, dated 2016)

What was measured:
[1] = test system: melanocytes and keratinocytes of tissue samples taken from the stomach tissue of a person; assay: Ex vivo study on the promotion of melanogenesis: histological analysis, melanin visualisation; assay type: cell-based, human; settings: for activity of the melanocytes / melanin content in basal keratinocytes / melanin content in suprabasal keratinocytes / melanin in basal keratinocytes: treatment for 10 days
Protocol: (§1) The tissue samples having a diameter of 10 mm are taken from the stomach tissue of a person and stored in BEM medium at 37° C. in a moist atmosphere having a CO2 content of 5%. The tissue samples are employed in accordance with the following test plan:
(§2) 30 μl of test solution are placed on a filter paper and immediately laid on the tissue sample.
(§3) The irradiations are carried out daily before treatment of the tissue samples with test solutions. An RMX 3W Vilbert Lourmat instrument is used. The UV dose is 1.04 J/cm2 comprising 6/8% of UVB.
On the first day (D0), 3 untreated tissue samples are halved, and in each case one half is fixed in buffered formalin solution. The respective other halves are frozen at −80° C.
After fixing for 24 hours in buffered formalin solution, the samples are dehydrated in a Leica TP1010 automatic dryer and impregnated with paraffin. After embedding with the aid of a Leica EG1160 station, 5 μm thin cross sections are produced from the samples using a Leica RM 2125 Minot-type microtome.
The cross sections are mounted on Superfrost Plus specimen slides made from silanised glass. The light-microscopy analysis is carried out by means of a Leica Orthoplan microscope with 25-times magnification in order to assess the general morphology or 40-times magnification in order to visualise the melanin.
The melanin visualisation is carried out after impregnation of the paraffinised cross-sections with silver in accordance with Masson in the Fontana variant.

[2] = test system: tissue samples taken from the stomach tissue of a person; assay: Ex vivo study on the promotion of melanogenesis: chromatometry of tissue samples; assay type: cell-based, human; settings: for % L: D10 versus D0
Protocol: as §1, §2, §3
The colour coordinates of the tissue samples are determined by means of a Minolta CM 2600d chromatometer.

[3] = with UV irradiation, after 10 days
[4] = without UV irradiation, after 10 days

Row | Compound | activity of the melanocytes ([1]; with UV irradiation) | melanin content in basal keratinocytes ([1]; with UV irradiation) | melanin content in suprabasal keratinocytes ([1]; with UV irradiation) | increase of the area of the basal layer occupied by melanin ([1]; without UV irradiation, compared with the untreated control) | activity of the melanocytes ([1]; without UV irradiation) | melanin content in suprabasal keratinocytes ([1]; without UV irradiation) | melanin in basal keratinocytes ([1]; without UV irradiation) | activity indicated by chromatometric analysis ([2]; with UV irradiation) | L ([2]; with UV irradiation, D0) | L ([2]; with UV irradiation, D10) | % L ([2]; with UV irradiation) | light/dark parameter L drops by [2, 3] | activity indicated by chromatometric analysis ([2]; without UV irradiation) | L ([2]; without UV irradiation, D0) | L ([2]; without UV irradiation, D10) | % L ([2]; without UV irradiation) | decrease in the L parameter [2, 4] | tanning activity in the ex vivo experiment [2] | change in the L parameter (in words) [2, 3] | increase in the L parameter [2, 4]
1 | CCCCCCCCCCCCCCCC(=O)Oc1cc(O)c2c(=O)cc(C)oc2c1 [compound Ia, 5-hydroxy-2-methyl-4-oxo-4H-chromen-7-yl hexadecanoate] | high degree of activity | high | moderate | 43% | very high activity | moderate | readily detectable | clear pro-pigmenting activity | 64.07 | 61.52 | −4% | 4.0% | pro-pigmenting activity | 64.53 | 61.24 | −5.1% | 5.1% |  |  | 
2 | CC(=O)c1cc(O)c2c(=O)cc(C)oc2c1 [5-hydroxy-7-acetyl-2-methylchromen-4-one] | low activity | moderate | low |  | very low activity | low | moderate | skin-lightening activity | 63.66 | 64.87 | 1.9% |  | skin-lightening activity | 62.19 | 63.98 | 2.9% |  | no tanning activity | increase in the L parameter | 2.9%
3 | COc1cc(O)c2c(=O)cc(C)oc2c1 [5-hydroxy-7-methoxy-2-methylchromen-4-one] | very low activity | moderate | low |  | very low activity | low | moderate | skin-lightening activity | 63.63 | 64.60 | 1.5% |  | skin-lightening activity | 61.50 | 64.64 | 5.1% |  |  | increase in the L parameter | 
